Experimental data as given in the supplement of paper PMC13380429.

Assays:
[1] = system: A549-ACE2 infected with SARS-CoV-2; assay: cell count relative to DMSO; higher = less toxic; conditions: 24 h
Caco-2 [2] = assay: cell viability relative to DMSO; higher = less toxic; conditions: 72 h
Calu-3 [3] = assay: as above; conditions: 72 h
HepG2 [4] = assay: as above; conditions: 72 h
U2OS [5] = assay: as above; conditions: 72 h
Vero E6 [6] = assay: as above; conditions: 72 h
[7] = system: A549-ACE2 infected with SARS-CoV-2; assay: SARS-CoV-2 infection rate relative to DMSO; higher = more infection; conditions: 24 h
A549-ACE2 [8] = assay: drug-induced phospholipidosis relative to tamoxifen; higher = more phospholipidosis
[9] = system: A549-ACE2 infected with SARS-CoV-2; assay: morphology score (similarity to uninfected cells); higher = more like uninfected cells; conditions: 24 h
Caco-2 [10] = assay: relative viability EC50 (midpoint between 100% and the lowest measured viability); higher = less toxic; conditions: 72 h
Calu-3 [11] = assay: as above; conditions: 72 h
U2OS [12] = assay: as above; conditions: 72 h
Vero E6 [13] = assay: as above; conditions: 72 h
Caco-2 [14] = assay: drug sensitivity score (DSS) for viability; higher = more toxic; extreme values may be limits of the assay; conditions: 72 h
Calu-3 [15] = assay: as above; conditions: 72 h
HepG2 [16] = assay: as above; conditions: 72 h
U2OS [17] = assay: as above; conditions: 72 h
Vero E6 [18] = assay: as above; conditions: 72 h
A549-ACE2 [19] = assay: phospholipidosis EC50; higher = less potent phospholipidosis inducer
HepG2 [20] = assay: relative viability EC50 (midpoint between 100% and the lowest measured viability); higher = less toxic; conditions: 72 h

Cn1cc(-c2cnn3c(N)c(Br)c([C@@H]4CCCNC4)nc23)cn1
Conditions | SARS-CoV-2 infection rate, [7] [%] | cell count, [1] [%] | cell viability, Caco-2 [2] [%] | cell viability, Calu-3 [3] [%] | cell viability, HepG2 [4] [%] | cell viability, U2OS [5] [%] | cell viability, Vero E6 [6] [%] | morphology score, [9]
1 nM | – | – | 92.5 | 99.2 | 98.8 | 98.3 | 102 | –
10 nM | – | – | 100 | 95.1 | 101 | 92 | 102 | –
100 nM | – | – | 93.4 | 97.6 | 88.7 | 100 | 98.2 | –
0.3 µM | 102 | 99 | – | – | – | – | – | -0.17
1000 nM | – | – | 97.7 | 93.3 | 75 | 73.4 | 95.7 | –
3 µM | 87 | 110 | – | – | – | – | – | 0.41
10 µM | 50 | 106 | – | – | – | – | – | 0.67
10000 nM | – | – | 86.2 | 100 | 52 | 13.7 | 82.1 | –
30 µM | 13 | 79 | – | – | – | – | – | 0.84

drug-induced phospholipidosis [%], A549-ACE2 [8]
Conditions | 0.3 µM | 0.833333 µM | 3.33333 µM | 6.66667 µM | 10 µM | 30 µM
24 h | 0.22 | 3.23 | 6.07 | 18.9 | 19.9 | 52.2
48 h | 3.9 | 4.18 | 8.86 | 16.4 | 18.3 | 60.6
72 h | 6.85 | 4.55 | 10.4 | 11.1 | 15.4 | –

Conditions | drug sensitivity score | relative viability EC50 [µM]
Caco-2 [10] | – | > 10
Caco-2 [14] | 0 | –
Calu-3 [11] | – | > 10
Calu-3 [15] | 0 | –
HepG2 [16] | 5.7 | –
U2OS [12] | – | 1.38
U2OS [17] | 8.7 | –
Vero E6 [13] | – | > 10
Vero E6 [18] | 0.9 | –

CN(C)C[C@H](O)Cn1c2ccc(Br)cc2c2cc(Br)ccc21 (racemic) [wiskostatin]
Conditions | SARS-CoV-2 infection rate [%] | cell count [%] | cell viability [%] | morphology score | phospholipidosis EC50 [µM]
A549-ACE2 [19], 24 h | – | – | – | – | 2.73
A549-ACE2 [19], 48 h | – | – | – | – | 3.44
A549-ACE2 [19], 72 h | – | – | – | – | 4.3
Caco-2 [2], 1 nM | – | – | 103 | – | –
Caco-2 [2], 10 nM | – | – | 105 | – | –
Caco-2 [2], 100 nM | – | – | 100 | – | –
Caco-2 [2], 1000 nM | – | – | 97.2 | – | –
Caco-2 [2], 10000 nM | – | – | 35 | – | –
Calu-3 [3], 1 nM | – | – | 110 | – | –
Calu-3 [3], 10 nM | – | – | 95.4 | – | –
Calu-3 [3], 100 nM | – | – | 123 | – | –
Calu-3 [3], 1000 nM | – | – | 104 | – | –
Calu-3 [3], 10000 nM | – | – | 20.7 | – | –
HepG2 [4], 1 nM | – | – | 108 | – | –
HepG2 [4], 10 nM | – | – | 105 | – | –
HepG2 [4], 100 nM | – | – | 107 | – | –
HepG2 [4], 1000 nM | – | – | 107 | – | –
HepG2 [4], 10000 nM | – | – | 27.2 | – | –
U2OS [5], 1 nM | – | – | 103 | – | –
U2OS [5], 10 nM | – | – | 98.8 | – | –
U2OS [5], 100 nM | – | – | 104 | – | –
U2OS [5], 1000 nM | – | – | 99.4 | – | –
U2OS [5], 10000 nM | – | – | 70.1 | – | –
Vero E6 [6], 1 nM | – | – | 110 | – | –
Vero E6 [6], 10 nM | – | – | 110 | – | –
Vero E6 [6], 100 nM | – | – | 106 | – | –
Vero E6 [6], 1000 nM | – | – | 100 | – | –
Vero E6 [6], 10000 nM | – | – | 48.2 | – | –
[1], 0.1 µM | – | 102 | – | – | –
[1], 0.3 µM | – | 100 | – | – | –
[1], 1 µM | – | 104 | – | – | –
[1], 3 µM | – | 119 | – | – | –
[7], 0.1 µM | 107 | – | – | – | –
[7], 0.3 µM | 98 | – | – | – | –
[7], 1 µM | 87 | – | – | – | –
[7], 3 µM | 46 | – | – | – | –
[9], 0.1 µM | – | – | – | 0.02 | –
[9], 0.3 µM | – | – | – | 0.05 | –
[9], 1 µM | – | – | – | 0.24 | –
[9], 3 µM | – | – | – | 0.74 | –

drug-induced phospholipidosis [%], A549-ACE2 [8]
Conditions | 0.3 µM | 0.833333 µM | 3.33333 µM | 6.66667 µM | 10 µM
24 h | 5.24 | 11.9 | 79.4 | 108 | 120
48 h | 4.43 | 7.26 | 89.6 | 176 | 184
72 h | 2.67 | 8.55 | 92.3 | 196 | 231

Conditions | drug sensitivity score | relative viability EC50 [µM]
Caco-2 [10] | – | 2.85
Caco-2 [14] | 3.9 | –
Calu-3 [11] | – | 3.47
Calu-3 [15] | 4 | –
HepG2 [16] | 3.5 | –
HepG2 [20] | – | 3.62
U2OS [17] | 1.4 | –
Vero E6 [13] | – | 3.2
Vero E6 [18] | 2.7 | –

Cc1ccccc1-n1c(Cn2ncc3c(N)ncnc32)nc2cccc(C)c2c1=O [PIK-293]
Conditions | SARS-CoV-2 infection rate [%] | cell count [%] | cell viability [%] | morphology score | phospholipidosis EC50 [µM]
A549-ACE2 [19], 24 h | – | – | – | – | 2.86
A549-ACE2 [19], 48 h | – | – | – | – | 3.88
Caco-2 [2], 1 nM | – | – | 101 | – | –
Caco-2 [2], 10 nM | – | – | 94.2 | – | –
Caco-2 [2], 100 nM | – | – | 91.1 | – | –
Caco-2 [2], 1000 nM | – | – | 95.8 | – | –
Caco-2 [2], 10000 nM | – | – | 89.9 | – | –
Calu-3 [3], 1 nM | – | – | 96.8 | – | –
Calu-3 [3], 10 nM | – | – | 90.5 | – | –
Calu-3 [3], 100 nM | – | – | 93 | – | –
Calu-3 [3], 1000 nM | – | – | 111 | – | –
Calu-3 [3], 10000 nM | – | – | 102 | – | –
HepG2 [4], 1 nM | – | – | 95.5 | – | –
HepG2 [4], 10 nM | – | – | 90 | – | –
HepG2 [4], 100 nM | – | – | 104 | – | –
HepG2 [4], 1000 nM | – | – | 95 | – | –
HepG2 [4], 10000 nM | – | – | 99.4 | – | –
U2OS [5], 1 nM | – | – | 91.4 | – | –
U2OS [5], 10 nM | – | – | 100 | – | –
U2OS [5], 100 nM | – | – | 93.6 | – | –
U2OS [5], 1000 nM | – | – | 100 | – | –
U2OS [5], 10000 nM | – | – | 95.5 | – | –
Vero E6 [6], 1 nM | – | – | 102 | – | –
Vero E6 [6], 10 nM | – | – | 99 | – | –
Vero E6 [6], 100 nM | – | – | 105 | – | –
Vero E6 [6], 1000 nM | – | – | 101 | – | –
Vero E6 [6], 10000 nM | – | – | 104 | – | –
[1], 0.3 µM | – | 84 | – | – | –
[1], 3 µM | – | 98 | – | – | –
[1], 10 µM | – | 65 | – | – | –
[7], 0.3 µM | 89 | – | – | – | –
[7], 3 µM | 27 | – | – | – | –
[7], 10 µM | 70 | – | – | – | –
[9], 0.3 µM | – | – | – | 0.21 | –
[9], 3 µM | – | – | – | 0.76 | –
[9], 10 µM | – | – | – | 0.02 | –

drug-induced phospholipidosis [%], A549-ACE2 [8]
Conditions | 0.3 µM | 0.833333 µM | 3.33333 µM | 6.66667 µM | 10 µM
24 h | 2.65 | 16.4 | 52.5 | 87.2 | 81
48 h | 5.81 | 14 | 48.3 | 99.5 | –
72 h | 3.73 | 6.21 | – | – | –

Conditions | drug sensitivity score | relative viability EC50 [µM]
Caco-2 [10] | – | > 10
Caco-2 [14] | 0 | –
Calu-3 [11] | – | > 10
Calu-3 [15] | 0 | –
HepG2 [16] | 0 | –
HepG2 [20] | – | > 10
U2OS [12] | – | > 10
U2OS [17] | 0 | –
Vero E6 [13] | – | > 10
Vero E6 [18] | 0 | –

CCc1cc2cc(OC)c(OC)cc2c(Cc2ccccc2)n1 [moxaverine]
Conditions | SARS-CoV-2 infection rate, [7] [%] | cell count, [1] [%] | cell viability, Caco-2 [2] [%] | cell viability, Calu-3 [3] [%] | cell viability, HepG2 [4] [%] | cell viability, U2OS [5] [%] | cell viability, Vero E6 [6] [%] | morphology score, [9]
1 nM | – | – | 89 | 95.7 | 101 | 101 | 96.5 | –
10 nM | – | – | 85.6 | 92.5 | 104 | 95.1 | 95.4 | –
100 nM | – | – | 104 | 95.9 | 98.5 | 99.6 | 92.2 | –
0.3 µM | 104 | 99 | – | – | – | – | – | -0.15
1000 nM | – | – | 90.9 | 96 | 103 | 95.5 | 95 | –
3 µM | 95 | 103 | – | – | – | – | – | 0.3
10 µM | 71 | 106 | – | – | – | – | – | 0.51
10000 nM | – | – | 105 | 100 | 106 | 96.8 | 107 | –
30 µM | 52 | 109 | – | – | – | – | – | 0.66

drug-induced phospholipidosis [%], A549-ACE2 [8]
Conditions | 0.3 µM | 0.833333 µM | 3.33333 µM | 6.66667 µM | 10 µM | 30 µM
24 h | 1.12 | 1.68 | 0.22 | 1.38 | 2.55 | 6.92
48 h | 3.81 | 1.7 | 2.59 | 3.75 | 3.82 | 13.6
72 h | 4.52 | 0.631 | 3.05 | 3.57 | 2.15 | 15.7

Conditions | drug sensitivity score | relative viability EC50 [µM]
Caco-2 [10] | – | > 10
Caco-2 [14] | 0 | –
Calu-3 [11] | – | > 10
Calu-3 [15] | 0 | –
HepG2 [16] | 0 | –
HepG2 [20] | – | > 10
U2OS [12] | – | > 10
U2OS [17] | 0 | –
Vero E6 [13] | – | > 10
Vero E6 [18] | 0 | –
